Article PMC7822874, “Chemoprotective antimalarials identified through quantitative high-throughput screening of Plasmodium blood and liver stage parasites” (Scientific Reports, 2021)
Read-outs that look alike come from different tables or passages of the source.

Tests used:
in vitro = settings: human
[1] = system: Plasmodium falciparum Dd2 asexual blood stage parasites; experiment: microbe, parasite or virus in culture; set-up: species or system Plasmodium falciparum Dd2 in human erythrocytes; single determination (one 11-point concentration-response curve); settings: Plasmodium falciparum, DD2, Erythrocyte, 72 h; read-out: AC50
[2] = system: P. berghei-ANKA-GFP-LucCON liver stage parasites in HepG2-A16-CD81EGFP cells; experiment: P. berghei liver stage Pb-Luc assay, Method 1 (UCSD, 1536-well); assay type: cell-based, Plasmodium berghei; settings: Plasmodium berghei, 48 h, average of 2 wells, 1536-well plate; for activity at 1 µM: nominal 1 uM (10 mM stock), […] for 15 mM, 1.2 uM for 12 mM, 2 uM for 20 mM stock; for activity at 3 µM: nominal 3 uM (10 mM stock), 4.5 uM for 15 mM, 3.6 uM for 12 mM, 6 uM for 20 mM stock; as to all read-outs here: reference of the scale not given here
[3] = HepG2-A16-CD81EGFP cells, uninfected
[4] = repeat 1, read-out: Pb-Luc signal, 1 uM, repeat 1
[5] = repeat 2, read-out: Pb-Luc signal, 1 uM, repeat 2
[6] = repeat 3, read-out: Pb-Luc signal, 1 uM, repeat 3
[7] = repeat 1, read-out: Pb-Luc signal, 3 uM, repeat 1
[8] = repeat 2, read-out: Pb-Luc signal, 3 uM, repeat 2
[9] = repeat 3, read-out: Pb-Luc signal, 3 uM, repeat 3
[10] = nominal 1 uM (10 mM stock), […] for 15 mM, 1.2 uM for 12 mM, 2 uM for 20 mM stock, average of 2 wells, repeat 2
[11] = nominal 3 uM (10 mM stock), 4.5 uM for 15 mM, 3.6 uM for 12 mM, 6 uM for 20 mM stock, average of 2 wells, repeat 2

| SMILES | viability at 48 h, 1 µM (in vitro; [3]) | viability at 48 h, 3 µM (in vitro; [3]) | AC50 [1] | activity at 1 µM [2, 4] | activity at 1 µM [2, 5] | activity at 1 µM [2, 6] | activity at 3 µM [2, 7] | activity at 3 µM [2, 8] | activity at 3 µM [2, 9] | HepG2 viability signal, 1 uM, repeat 2 (HepG2-A16-CD81EGFP cells; [10]) | HepG2 viability signal, 3 uM, repeat 2 (HepG2-A16-CD81EGFP cells; [11]) | viability at 48 h, 1 µM (in vitro) | viability at 48 h, 3 µM (in vitro) | HepG2 viability signal, 1 uM, repeat 2 (HepG2-A16-CD81EGFP cells; human, 48 h, 1 µM) | HepG2 viability signal, 3 uM, repeat 2 (HepG2-A16-CD81EGFP cells; human, 48 h, 3 µM) | HepG2 viability signal, 1 uM, repeat 2 (HepG2-A16-CD81EGFP cells) | HepG2 viability signal, 3 uM, repeat 2 (HepG2-A16-CD81EGFP cells) |
| --- | --- | --- | --- | --- | --- | --- | --- | --- | --- | --- | --- | --- | --- | --- | --- | --- | --- |
| COc1ccccc1CN1COc2ccc3c(oc(=O)c4ccccc43)c2C1 [NCGC00116378-01] | 106% | 108% | 2110 nM | 85.6% | 85.1% | 110% | 73.3% | 86.8% | 88.1% | 104.93% | 105.29% | – | – | – | – | – | – |
| COc1cc2c(cc1OCc1ccccc1)N(C(=O)c1cc3ccccc3[nH]1)CC21CCN(C)CC1 [NCGC00419851-01] | – | – | 944 nM | 59.5% | 89.6% | 74.1% | 16.8% | 54.6% | 95.7% | – | – | 99% | 98.9% | 101.97% | 102.28% | – | – |
| COc1ccc(-c2noc(-c3cccn3CC(=O)Nc3ccccc3F)n2)cc1F [NCGC00445496-01] | 98.5% | 101% | 4220 nM | 109% | 140% | 144% | 172% | 189% | 163% | – | 99.66% | – | – | – | – | – | – |
| CCc1cccc(-n2c(=O)c3cccnc3n2CC(=O)NCc2ccccc2)c1 [NCGC00128448-01] | 105% | 100% | 1680 nM | 105% | 86.8% | 118% | 150% | 109% | 92.9% | 105.26% | 100.08% | – | – | – | – | – | – |
| CCC(=O)N1CCc2cc(Br)cc([S+](=O)([O-])N3CCCC(C(=O)Nc4ccc(OC)c(Cl)c4)C3)c21 (centres unmarked) [NCGC00106201-01] | 90.7% | 82.3% | – | 76.1% | 86.6% | 75.8% | 53.5% | 100% | 60% | – | – | – | – | – | – | 91.30% | 86.54% |
| Cc1ccc([S+](=O)([O-])N2CCC(OC3CCN(Cc4ccccc4)CC3)CC2)c(C)c1 [NCGC00444944-01] | 111% | 107% | – | 76.1% | 74% | 76.6% | 78.2% | 61.2% | 56.1% | 105.13% | 100.76% | – | – | – | – | – | – |
| C[C@H]1[C@@H]2[C@H]3OC(=O)[C@@H](C)[C@@H]3CC[C@@]2(C)CC[C@@H]1NC(=O)CC(C)(C)C [NCGC00392703-01] | 95.8% | 99% | – | 105% | 129% | 103% | 126% | 109% | 99.6% | 102.40% | 102.42% | – | – | – | – | – | – |
| COc1ccc(CN2CCCC3(C2)C(NC2CCCCC2)=NC(=O)N3c2cc(F)cc(F)c2)cc1 (centres unmarked) [NCGC00373972-01] | 107% | 105% | – | 89.2% | 98.6% | 137% | 120% | 103% | 87.7% | 102.91% | 99.86% | – | – | – | – | – | – |
| COc1cccc(CN2CCC(Oc3ccc(-c4noc(C5CC5)n4)cc3)C2)c1 (centres unmarked) [NCGC00440915-01] | 102% | 96.6% | – | 92.7% | 110% | 96% | 64.2% | 65.8% | 35.3% | 97.97% | 94.86% | – | – | – | – | – | – |
| O=C(O)c1ccc(-c2nc3cnccc3[nH]2)cc1 [NCGC00375713-01] | 105% | 104% | – | 93.2% | 89.1% | 137% | 91.8% | 93.1% | 98.5% | 104.68% | 103.76% | – | – | – | – | – | – |
| COc1ccc(-c2noc(-c3cccn3CC(=O)Nc3cccc(Cl)c3C)n2)cc1F [NCGC00445510-01] | 104% | 105% | – | 103% | 114% | 132% | 102% | 91.7% | 124% | 99.09% | 100.27% | – | – | – | – | – | – |
| COc1ccc(OC)c(NC(=O)c2ccc3c(c2)N([S+](=O)([O-])c2ccccc2)CC3)c1 [NCGC00430430-01] | 112% | 109% | – | 111% | 108% | 91.3% | 102% | 79.3% | 99.8% | – | – | – | – | – | – | 105.03% | 97.67% |
| COc1ccc(Cl)cc1[S+](=O)([O-])N1CCC2(CCCNC2)C1 (centres unmarked) [NCGC00431241-01] | 112% | 108% | – | 96.7% | 98.8% | 61.1% | 98.4% | 74.5% | 79.2% | 104.68% | 95.82% | – | – | – | – | – | – |
| CN1c2cc(C(=O)Nc3ccc(C(F)(F)F)cc3)ccc2C(=O)N2CCCCC21 (centres unmarked) [NCGC00452394-01] | 104% | 110% | – | 89.2% | 103% | 126% | 97.6% | 85.9% | 102% | 105.25% | 108.50% | – | – | – | – | – | – |
